Experimental data as given in the NIST ThermoML archive (doi:10.1016/j.fluid.2012.11.006).
Values joined by “and” are separate entries in the source; they are usually repeats but may differ in a detail not shown here. Equal values may be shown once. Numbers after ± are expanded uncertainties.

Legend:
[1] = Molar enthalpy of transition or fusion; conditions: Crystal; DSC
[2] = molar enthalpy of transition or fusion; conditions: DSC
[3] = molar enthalpy of vaporization or sublimation; conditions: 298.15 K; Crystal; Torsion-effucion
[4] = molar heat capacity at constant pressure; conditions: 101.33 kPa, Crystal, Flow calorimetry

## O=C(O)c1cc(Br)cc(Br)c1 [3,5-dibromobenzoic acid]
[1]
  Molar enthalpy of transition or fusion: 20.2 ± 0.526 kcal/mol
[2]; 298.15 K, Crystal
  molar enthalpy of transition or fusion: 28.8 ± 1.55 kcal/mol
[2]; 491.2 K, Crystal
  molar enthalpy of transition or fusion: 20.2 kcal/mol and 27.4 kcal/mol
[2]; 491.2 K, Liquid
  molar enthalpy of transition or fusion: 7.03 ± 0.86 kcal/mol
355.2 K, Crystal, Torsion effusion method
  vapor or sublimation pressure: 1.9e-05 ± 2e-05 kPa
358 K, Crystal, Torsion effusion method
  vapor or sublimation pressure: 2.8e-05 ± 2e-05 kPa
359 K, Crystal, Torsion effusion method
  vapor or sublimation pressure: 2.8e-05 ± 2e-05 kPa
360.5 K, Crystal, Torsion effusion method
  vapor or sublimation pressure: 3.8e-05 ± 2e-05 kPa
362.5 K, Crystal, Torsion effusion method
  vapor or sublimation pressure: 4.7e-05 ± 2e-05 kPa
363.8 K, Crystal, Torsion effusion method
  vapor or sublimation pressure: 4.7e-05 ± 2e-05 kPa
365.2 K, Crystal, Torsion effusion method
  vapor or sublimation pressure: 5.7e-05 ± 2e-05 kPa
365.6 K, Crystal, Torsion effusion method
  vapor or sublimation pressure: 5.7e-05 ± 2e-05 kPa
366.4 K, Crystal, Torsion effusion method
  vapor or sublimation pressure: 6.6e-05 ± 2e-05 kPa
366.8 K, Crystal, Torsion effusion method
  vapor or sublimation pressure: 7.6e-05 ± 2.1e-05 kPa
369.2 K, Crystal, Torsion effusion method
  vapor or sublimation pressure: 9.5e-05 ± 2.1e-05 kPa
371 K, Crystal, Torsion effusion method
  vapor or sublimation pressure: 0.000114 ± 2.1e-05 kPa
371.2 K, Crystal, Torsion effusion method
  vapor or sublimation pressure: 0.000114 ± 2.1e-05 kPa
371.3 K, Crystal, Torsion effusion method
  vapor or sublimation pressure: 0.000114 ± 2.1e-05 kPa
372.5 K, Crystal, Torsion effusion method
  vapor or sublimation pressure: 0.000133 ± 2.2e-05 kPa
373 K, Crystal, Torsion effusion method
  vapor or sublimation pressure: 0.000133 ± 2.2e-05 kPa
373.7 K, Crystal, Torsion effusion method
  vapor or sublimation pressure: 0.000133 ± 2.2e-05 kPa
374 K, Crystal, Torsion effusion method
  vapor or sublimation pressure: 0.000152 ± 2.2e-05 kPa
375.6 K, Crystal, Torsion effusion method
  vapor or sublimation pressure: 0.000189 ± 2.3e-05 kPa
376 K, Crystal, Torsion effusion method
  vapor or sublimation pressure: 0.000189 ± 2.3e-05 kPa
377 K, Crystal, Torsion effusion method
  vapor or sublimation pressure: 0.000208 ± 2.4e-05 kPa
377.9 K, Crystal, Torsion effusion method
  vapor or sublimation pressure: 0.000227 ± 2.4e-05 kPa
378.2 K, Crystal, Torsion effusion method
  vapor or sublimation pressure: 0.000208 ± 2.4e-05 kPa
380.2 K, Crystal, Torsion effusion method
  vapor or sublimation pressure: 0.000284 ± 2.7e-05 kPa
380.4 K, Crystal, Torsion effusion method
  vapor or sublimation pressure: 0.000284 ± 2.7e-05 kPa
381.3 K, Crystal, Torsion effusion method
  vapor or sublimation pressure: 0.000303 ± 2.7e-05 kPa
381.5 K, Crystal, Torsion effusion method
  vapor or sublimation pressure: 0.000303 ± 2.7e-05 kPa
383.2 K, Crystal, Torsion effusion method
  vapor or sublimation pressure: 0.000398 ± 3.2e-05 kPa
383.7 K, Crystal, Torsion effusion method
  vapor or sublimation pressure: 0.000398 ± 3.2e-05 kPa
384.1 K, Crystal, Torsion effusion method
  vapor or sublimation pressure: 0.000379 ± 3.1e-05 kPa
384.3 K, Crystal, Torsion effusion method
  vapor or sublimation pressure: 0.000436 ± 3.3e-05 kPa
386.3 K, Crystal, Torsion effusion method
  vapor or sublimation pressure: 0.000474 ± 3.5e-05 kPa
386.6 K, Crystal, Torsion effusion method
  vapor or sublimation pressure: 0.000531 ± 3.8e-05 kPa
386.9 K, Crystal, Torsion effusion method
  vapor or sublimation pressure: 0.000531 ± 3.8e-05 kPa
387.7 K, Crystal, Torsion effusion method
  vapor or sublimation pressure: 0.000531 ± 3.8e-05 kPa
389.8 K, Crystal, Torsion effusion method
  vapor or sublimation pressure: 0.000758 ± 5.1e-05 kPa
390.1 K, Crystal, Torsion effusion method
  vapor or sublimation pressure: 0.00072 ± 4.8e-05 kPa
390.8 K, Crystal, Torsion effusion method
  vapor or sublimation pressure: 0.000796 ± 5.3e-05 kPa
391.1 K, Crystal, Torsion effusion method
  vapor or sublimation pressure: 0.000739 ± 4.9e-05 kPa
393.1 K, Crystal, Torsion effusion method
  vapor or sublimation pressure: 0.000947 ± 6.1e-05 kPa
393.7 K, Crystal, Torsion effusion method
  vapor or sublimation pressure: 0.000947 ± 6.1e-05 kPa
394 K, Crystal, Torsion effusion method
  vapor or sublimation pressure: 0.001004 ± 6.5e-05 kPa
395.6 K, Crystal, Torsion effusion method
  vapor or sublimation pressure: 0.001213 ± 7.7e-05 kPa
395.9 K, Crystal, Torsion effusion method
  vapor or sublimation pressure: 0.001175 ± 7.5e-05 kPa
500.1 K, Liquid, isothermal thermogravimetric
  vapor or sublimation pressure: 1.128 ± 0.081 kPa
500.1 K, Liquid, non-isothermal thermogravimetric
  vapor or sublimation pressure: 1.173 ± 0.084 kPa
500.7 K, Liquid, non-isothermal thermogravimetric
  vapor or sublimation pressure: 1.118 ± 0.11 kPa
501.1 K, Liquid, isothermal thermogravimetric
  vapor or sublimation pressure: 1.191 ± 0.062 kPa
501.1 K, Liquid, non-isothermal thermogravimetric
  vapor or sublimation pressure: 1.135 ± 0.12 kPa
501.3 K, Liquid, non-isothermal thermogravimetric
  vapor or sublimation pressure: 1.141 ± 0.099 kPa
501.6 K, Liquid, isothermal thermogravimetric
  vapor or sublimation pressure: 1.21 ± 0.081 kPa
502.2 K, Liquid, isothermal thermogravimetric
  vapor or sublimation pressure: 1.21 ± 0.082 kPa
504 K, Liquid, non-isothermal thermogravimetric
  vapor or sublimation pressure: 1.377 ± 0.1 kPa
504.6 K, Liquid, isothermal thermogravimetric
  vapor or sublimation pressure: 1.376 ± 0.081 kPa
504.9 K, Liquid, non-isothermal thermogravimetric
  vapor or sublimation pressure: 1.33 ± 0.1 kPa
505.1 K, Liquid, isothermal thermogravimetric
  vapor or sublimation pressure: 1.405 ± 0.082 kPa
505.2 K, Liquid, non-isothermal thermogravimetric
  vapor or sublimation pressure: 1.358 ± 0.1 kPa
505.4 K, Liquid, isothermal thermogravimetric
  vapor or sublimation pressure: 1.401 ± 0.089 kPa
505.6 K, Liquid, non-isothermal thermogravimetric
  vapor or sublimation pressure: 1.401 ± 0.1 kPa
506.3 K, Liquid, isothermal thermogravimetric
  vapor or sublimation pressure: 1.426 ± 0.091 kPa
508.2 K, Liquid, non-isothermal thermogravimetric
  vapor or sublimation pressure: 1.617 ± 0.11 kPa
508.8 K, Liquid, isothermal thermogravimetric
  vapor or sublimation pressure: 1.646 ± 0.082 kPa
508.9 K, Liquid, isothermal thermogravimetric
  vapor or sublimation pressure: 1.615 ± 0.082 kPa
509 K, Liquid, non-isothermal thermogravimetric
  vapor or sublimation pressure: 1.592 ± 0.11 kPa and 1.624 ± 0.11 kPa
509.2 K, Liquid, isothermal thermogravimetric
  vapor or sublimation pressure: 1.652 ± 0.083 kPa
509.4 K, Liquid, non-isothermal thermogravimetric
  vapor or sublimation pressure: 1.653 ± 0.11 kPa
510.3 K, Liquid, isothermal thermogravimetric
  vapor or sublimation pressure: 1.637 ± 0.096 kPa
512.3 K, Liquid, non-isothermal thermogravimetric
  vapor or sublimation pressure: 1.893 ± 0.1 kPa
512.9 K, Liquid, isothermal thermogravimetric
  vapor or sublimation pressure: 1.908 ± 0.1 kPa
513 K, Liquid, isothermal thermogravimetric
  vapor or sublimation pressure: 1.9 ± 0.1 kPa
513.1 K, Liquid, isothermal thermogravimetric
  vapor or sublimation pressure: 1.909 ± 0.1 kPa
513.1 K, Liquid, non-isothermal thermogravimetric
  vapor or sublimation pressure: 1.85 ± 0.11 kPa
513.3 K, Liquid, non-isothermal thermogravimetric
  vapor or sublimation pressure: 1.802 ± 0.11 kPa
513.5 K, Liquid, non-isothermal thermogravimetric
  vapor or sublimation pressure: 1.882 ± 0.12 kPa
514.4 K, Liquid, isothermal thermogravimetric
  vapor or sublimation pressure: 1.98 ± 0.1 kPa
516.3 K, Liquid, non-isothermal thermogravimetric
  vapor or sublimation pressure: 2.222 ± 0.12 kPa
516.7 K, Liquid, isothermal thermogravimetric
  vapor or sublimation pressure: 2.189 ± 0.089 kPa
517 K, Liquid, isothermal thermogravimetric
  vapor or sublimation pressure: 2.217 ± 0.091 kPa
517.1 K, Liquid, isothermal thermogravimetric
  vapor or sublimation pressure: 2.176 ± 0.089 kPa
517.1 K, Liquid, non-isothermal thermogravimetric
  vapor or sublimation pressure: 2.15 ± 0.13 kPa and 2.187 ± 0.13 kPa
517.5 K, Liquid, non-isothermal thermogravimetric
  vapor or sublimation pressure: 2.228 ± 0.12 kPa
518.2 K, Liquid, isothermal thermogravimetric
  vapor or sublimation pressure: 2.223 ± 0.12 kPa
520.1 K, Liquid, non-isothermal thermogravimetric
  vapor or sublimation pressure: 2.546 ± 0.12 kPa
520.6 K, Liquid, isothermal thermogravimetric
  vapor or sublimation pressure: 2.505 ± 0.11 kPa
520.9 K, Liquid, isothermal thermogravimetric
  vapor or sublimation pressure: 2.553 ± 0.11 kPa
521 K, Liquid, non-isothermal thermogravimetric
  vapor or sublimation pressure: 2.478 ± 0.12 kPa
521.2 K, Liquid, isothermal thermogravimetric
  vapor or sublimation pressure: 2.586 ± 0.11 kPa
521.2 K, Liquid, non-isothermal thermogravimetric
  vapor or sublimation pressure: 2.518 ± 0.12 kPa
521.4 K, Liquid, non-isothermal thermogravimetric
  vapor or sublimation pressure: 2.57 ± 0.11 kPa
522.5 K, Liquid, isothermal thermogravimetric
  vapor or sublimation pressure: 2.612 ± 0.12 kPa
524.2 K, Liquid, non-isothermal thermogravimetric
  vapor or sublimation pressure: 2.862 ± 0.11 kPa
525 K, Liquid, isothermal thermogravimetric
  vapor or sublimation pressure: 2.943 ± 0.12 kPa and 2.941 ± 0.12 kPa
525.2 K, Liquid, non-isothermal thermogravimetric
  vapor or sublimation pressure: 2.789 ± 0.14 kPa
525.4 K, Liquid, isothermal thermogravimetric
  vapor or sublimation pressure: 2.995 ± 0.14 kPa
525.4 K, Liquid, non-isothermal thermogravimetric
  vapor or sublimation pressure: 2.858 ± 0.15 kPa
525.5 K, Liquid, non-isothermal thermogravimetric
  vapor or sublimation pressure: 2.884 ± 0.15 kPa
526.3 K, Liquid, isothermal thermogravimetric
  vapor or sublimation pressure: 3.009 ± 0.079 kPa
528.1 K, Liquid, non-isothermal thermogravimetric
  vapor or sublimation pressure: 3.325 ± 0.15 kPa
528.9 K, Liquid, non-isothermal thermogravimetric
  vapor or sublimation pressure: 3.233 ± 0.13 kPa and 3.297 ± 0.14 kPa
529.2 K, Liquid, non-isothermal thermogravimetric
  vapor or sublimation pressure: 3.322 ± 0.08 kPa
Crystal, DTA
  Normal melting temperature: 218.1 ± 0.5 °C
[3]
  molar enthalpy: 28.8 ± 0.478 kcal/mol
[4]; 288.2 K
  molar heat capacity at constant pressure: 215.7 ± 0.9 J/K/mol and 215.8 ± 0.9 J/K/mol
[4]; 290.2 K
  molar heat capacity at constant pressure: 217.3 ± 1 J/K/mol and 217.5 ± 1 J/K/mol and 217.4 ± 1 J/K/mol
[4]; 292.2 K
  molar heat capacity at constant pressure: 219.2 ± 0.9 J/K/mol and 219.3 ± 0.9 J/K/mol and 219.4 ± 0.9 J/K/mol
[4]; 294.2 K
  molar heat capacity at constant pressure: 220.3 ± 0.8 J/K/mol and 220.4 ± 0.8 J/K/mol
[4]; 296.2 K
  molar heat capacity at constant pressure: 221.6 ± 0.8 J/K/mol and 221.5 ± 0.8 J/K/mol
[4]; 298.2 K
  molar heat capacity at constant pressure: 223.2 ± 1 J/K/mol and 223.1 ± 1 J/K/mol and 223 ± 1 J/K/mol
[4]; 300.2 K
  molar heat capacity at constant pressure: 224.5 ± 0.9 J/K/mol and 224.9 ± 0.9 J/K/mol and 224.7 ± 0.9 J/K/mol
[4]; 302.2 K
  molar heat capacity at constant pressure: 225.8 ± 0.8 J/K/mol and 225.7 ± 0.8 J/K/mol
[4]; 304.2 K
  molar heat capacity at constant pressure: 227.2 ± 0.8 J/K/mol and 227.1 ± 0.8 J/K/mol and 227 ± 0.8 J/K/mol
[4]; 306.2 K
  molar heat capacity at constant pressure: 228.4 ± 0.8 J/K/mol and 228.3 ± 0.8 J/K/mol
[4]; 308.2 K
  molar heat capacity at constant pressure: 229.6 ± 1 J/K/mol and 229.8 ± 1 J/K/mol and 229.9 ± 1 J/K/mol
[4]; 310.2 K
  molar heat capacity at constant pressure: 231.5 ± 0.9 J/K/mol and 231.6 ± 0.9 J/K/mol
[4]; 312.2 K
  molar heat capacity at constant pressure: 232.5 ± 0.8 J/K/mol and 232.3 ± 0.8 J/K/mol and 232.4 ± 0.8 J/K/mol
[4]; 314.2 K
  molar heat capacity at constant pressure: 234.1 ± 0.9 J/K/mol and 233.9 ± 0.9 J/K/mol and 234 ± 0.9 J/K/mol
[4]; 316.2 K
  molar heat capacity at constant pressure: 235.2 ± 0.9 J/K/mol and 235.3 ± 0.9 J/K/mol
[4]; 318.2 K
  molar heat capacity at constant pressure: 236.9 ± 1 J/K/mol and 236.7 ± 1 J/K/mol and 237 ± 1 J/K/mol
[4]; 320.2 K
  molar heat capacity at constant pressure: 238.5 ± 0.7 J/K/mol and 238.4 ± 0.7 J/K/mol
[4]; 322.2 K
  molar heat capacity at constant pressure: 239 ± 0.8 J/K/mol and 239.2 ± 0.8 J/K/mol
[4]; 324.2 K
  molar heat capacity at constant pressure: 240.7 ± 1 J/K/mol and 240.6 ± 1 J/K/mol and 240.5 ± 1 J/K/mol
[4]; 326.2 K
  molar heat capacity at constant pressure: 242.5 ± 1 J/K/mol and 242.4 ± 1 J/K/mol
